# Source: the supplement of paper PMC10307832
# Tests used:
# Experiment in all cases: relative viability (nuclei count vs DMSO), 5 days (fraction); higher = more cells survive
# [1] = compound: C1COCCN1C2=NC(=NC3=C2OC4=C3C=CC=N4)C5=CC(=CC=C5)NC(=O)C6=CN=C(C=C6)N + Cc1cc(Nc2cc(N3CCN(C)CC3)nc(Sc3ccc(NC(=O)C4CC4)cc3)n2)n[nH]1 [Tozasertib] (partner 0.1 µM)
# Summary of the method: (§1)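 One day after seeding in 1536-well plates, lung cancer cell lines were dosed by pin tool. Dosing was either single-drug or a fixed anchor-drug dose plus five library-drug doses (not always all listed) in √10 steps. After 5 days, nuclei were stained in one fix-and-stain step and counted on 4× images, and relative viability is the nuclei count of treated wells over that of vehicle wells, given as the median of duplicate plates.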
# [2] = compound: CN1CCC(CNc2ccc3ncc(-c4cccc(OC(F)(F)F)c4)n3n2)CC1 [SGI-1776] + CC(=O)Nc1cccc(-n2c(=O)n(C3CC3)c(=O)c3c(Nc4ccc(I)cc4F)n(C)c(=O)c(C)c32)c1 [Trametinib] (partner 0.02 µM)
# Summary of the method: as §1
# [3] = compound: CN1CCC(CNc2ccc3ncc(-c4cccc(OC(F)(F)F)c4)n3n2)CC1 [SGI-1776] + Nc1nc2[nH]cc(CCc3ccc(C(=O)N[C@@H](CCC(=O)O)C(=O)O)cc3)c2c(=O)[nH]1 [Pemetrexed] (partner 0.2 µM)
# Summary of the method: as §1
# [4] = compound: Nc1ccccc1NC(=O)c1ccc(CNC(=O)OCc2cccnc2)cc1 [Entinostat] + Cc1nc(Nc2ncc(C(=O)Nc3c(C)cccc3Cl)s2)cc(N2CCN(CCO)CC2)n1 [Dasatinib] (partner 0.075 µM)
# Summary of the method: as §1
Cell Line,relative viability ([1]; first compound 0.02 µM),relative viability ([1]; first compound 0.06325 µM),relative viability ([1]; first compound 0.2 µM),relative viability ([1]; first compound 0.6325 µM),relative viability ([1]; first compound 2 µM),relative viability ([2]; first compound 0.08 µM),relative viability ([2]; first compound 0.8 µM),relative viability ([2]; first compound 2.53 µM),relative viability ([2]; first compound 8 µM),relative viability ([3]; first compound 0.08 µM),relative viability ([3]; first compound 0.8 µM),relative viability ([3]; first compound 2.53 µM),relative viability ([3]; first compound 8 µM),relative viability ([4]; first compound 0.02 µM),relative viability ([4]; first compound 0.06325 µM),relative viability ([4]; first compound 0.2 µM),relative viability ([4]; first compound 0.6325 µM),relative viability ([4]; first compound 2 µM)
201T,0.959,1.04,0.915,0.913,0.452,0.702,0.77,0.711,0.702,0.325,0.339,0.348,0.301,0.651,0.559,0.58,0.421,0.313
A-427,0.187,0.225,0.199,0.175,0.219,0.749,0.726,0.722,0.542,1.01,1.05,0.944,0.897,0.707,0.679,0.614,0.525,0.442
ABC-1,0.177,0.183,0.167,0.406,0.222,–,–,–,–,–,–,–,–,0.47,0.751,0.663,0.51,0.486
BEN,0.593,0.444,0.488,0.513,0.386,1.03,1.24,0.991,0.791,0.806,0.811,0.712,0.615,0.318,0.341,0.308,0.264,0.179
CAL-12T,0.325,0.27,0.206,0.24,0.177,0.433,0.399,0.33,0.288,1.31,1.06,1.16,1.28,0.571,0.427,0.375,0.295,0.218
COR-L23,0.219,0.223,0.143,0.181,0.159,0.694,0.619,0.613,0.408,0.212,0.188,0.2,0.18,0.45,0.444,0.398,0.22,0.112
COR-L 105,0.325,0.352,0.329,0.359,0.31,0.504,0.388,0.452,0.41,1.06,1.14,1.11,1.09,0.337,0.407,0.36,0.344,0.232
ChaGo-K-1,0.217,0.23,0.197,0.228,0.224,0.878,0.865,0.874,0.909,0.269,0.267,0.287,0.242,0.709,0.554,0.671,0.526,0.553
EKVX,0.396,0.391,0.34,0.408,0.236,0.386,0.342,0.344,0.31,0.396,0.477,0.395,0.371,0.656,0.51,0.492,0.435,0.343
EMC-BAC-2,0.302,0.289,0.26,0.299,0.303,0.992,0.966,0.853,0.879,0.438,0.452,0.458,0.425,0.349,0.318,0.298,0.177,0.109
EPLC-272H,0.249,0.173,0.175,0.223,0.199,0.288,0.282,0.307,0.282,0.423,0.362,0.351,0.246,0.364,0.417,0.289,0.195,0.2
H3255,0.779,0.639,0.736,0.847,0.957,0.633,0.582,0.577,0.559,0.602,0.609,0.649,0.471,0.397,0.37,0.27,0.32,0.265
HARA,0.0879,0.0809,0.112,0.0875,0.125,0.652,0.74,0.604,0.732,0.191,0.231,0.259,0.259,0.299,0.256,0.256,0.273,0.168
HCC-15,0.462,0.438,0.19,0.205,0.208,0.262,0.376,0.332,0.338,0.229,0.226,0.223,0.197,0.664,0.749,0.595,0.33,0.178
HCC-44,0.882,1.04,0.829,0.766,0.546,1.04,1.05,0.988,1.09,0.612,0.621,0.679,0.633,–,–,–,–,–
HCC-78,0.394,0.427,0.432,0.367,0.24,0.772,0.804,0.693,0.72,0.894,0.875,0.908,0.939,0.432,0.39,0.316,0.277,0.291
HCC-366,0.0782,0.144,0.0599,0.0546,0.0428,0.344,0.368,0.289,0.19,0.184,0.17,0.172,0.164,0.679,0.663,0.527,0.512,0.196
HCC-827,0.415,0.435,0.441,0.438,0.343,0.578,0.534,0.578,0.464,0.393,0.268,0.24,0.226,0.255,0.269,0.23,0.227,0.294
